Laboratory results published in ChEMBL document CHEMBL1127727, “Synthesis and structure-activity relationships of novel retinoid X receptor-selective retinoids” (J Med Chem, 1994).

Assays:
[1] = target: T1, Retinoic acid receptor RXR-beta (Mus musculus, UniProt P28704); experiment: Effective concentration against retinoid receptor isoform (RXR beta) expressed in CV-1 cells; format: cell-based
T1 sequence (P28704 whole entry): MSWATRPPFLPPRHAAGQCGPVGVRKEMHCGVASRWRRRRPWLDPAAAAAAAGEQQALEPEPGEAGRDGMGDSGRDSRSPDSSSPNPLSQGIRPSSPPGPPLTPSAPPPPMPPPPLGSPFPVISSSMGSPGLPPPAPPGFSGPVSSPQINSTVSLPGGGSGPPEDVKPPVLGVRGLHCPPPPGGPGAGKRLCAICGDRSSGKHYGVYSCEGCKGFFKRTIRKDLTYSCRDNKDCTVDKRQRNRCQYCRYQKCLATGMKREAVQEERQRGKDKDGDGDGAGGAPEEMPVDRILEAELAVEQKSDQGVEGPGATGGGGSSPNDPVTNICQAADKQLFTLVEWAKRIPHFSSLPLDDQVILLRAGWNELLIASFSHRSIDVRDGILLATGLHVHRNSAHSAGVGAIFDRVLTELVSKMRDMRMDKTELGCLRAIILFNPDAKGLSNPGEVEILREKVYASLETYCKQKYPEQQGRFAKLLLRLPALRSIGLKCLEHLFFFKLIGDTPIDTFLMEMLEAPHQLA

[2] = target: T1, Retinoic acid receptor RXR-beta; experiment: Inhibition of [3H]9-cis-RA binding to baculovirus expressed retinoid receptor RXR beta
[3] = target: T2, Retinoic acid receptor alpha (Homo sapiens, UniProt P10276); experiment: Inhibition of [3H]ATRA binding to baculovirus expressed retinoid receptor RAR alpha
T2 sequence (P10276 whole entry): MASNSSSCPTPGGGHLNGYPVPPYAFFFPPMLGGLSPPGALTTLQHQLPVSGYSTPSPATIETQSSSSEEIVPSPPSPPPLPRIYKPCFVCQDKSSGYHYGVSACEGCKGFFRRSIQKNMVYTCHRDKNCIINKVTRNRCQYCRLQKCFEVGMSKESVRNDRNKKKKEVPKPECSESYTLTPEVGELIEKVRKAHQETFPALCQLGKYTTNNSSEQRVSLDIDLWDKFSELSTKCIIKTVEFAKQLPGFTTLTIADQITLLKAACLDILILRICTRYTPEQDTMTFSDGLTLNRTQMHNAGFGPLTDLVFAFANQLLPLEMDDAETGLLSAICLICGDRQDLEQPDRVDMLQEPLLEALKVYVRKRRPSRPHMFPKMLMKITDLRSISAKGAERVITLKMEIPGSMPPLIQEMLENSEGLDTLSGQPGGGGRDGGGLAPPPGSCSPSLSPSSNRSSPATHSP

[4] = target: T3, Retinoic acid receptor beta (Homo sapiens, UniProt P10826); experiment: Effective concentration against retinoid receptor isoform (RAR beta) expressed in CV-1 cells; format: cell-based
T3 sequence (P10826 whole entry): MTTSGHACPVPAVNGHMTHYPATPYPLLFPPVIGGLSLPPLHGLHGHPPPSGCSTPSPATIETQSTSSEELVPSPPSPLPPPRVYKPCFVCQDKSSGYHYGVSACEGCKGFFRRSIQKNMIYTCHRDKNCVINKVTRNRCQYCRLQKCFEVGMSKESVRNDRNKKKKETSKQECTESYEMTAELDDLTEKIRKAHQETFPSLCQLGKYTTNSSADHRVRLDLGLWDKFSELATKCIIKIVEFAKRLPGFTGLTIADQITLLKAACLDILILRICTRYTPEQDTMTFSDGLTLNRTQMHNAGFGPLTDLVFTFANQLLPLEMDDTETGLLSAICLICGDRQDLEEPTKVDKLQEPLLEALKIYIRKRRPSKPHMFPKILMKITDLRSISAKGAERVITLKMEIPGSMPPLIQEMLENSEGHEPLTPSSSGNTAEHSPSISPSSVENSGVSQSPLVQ

[5] = target: T3, Retinoic acid receptor beta; experiment: Inhibition of [3H]ATRA binding to baculovirus expressed retinoid receptor RAR beta
[6] = target: T4, Retinoic acid receptor gamma (Homo sapiens, UniProt P13631); experiment: Effective concentration against retinoid receptor isoform (RAR gamma) expressed in CV-1 cells; format: cell-based
T4 sequence (P13631 whole entry): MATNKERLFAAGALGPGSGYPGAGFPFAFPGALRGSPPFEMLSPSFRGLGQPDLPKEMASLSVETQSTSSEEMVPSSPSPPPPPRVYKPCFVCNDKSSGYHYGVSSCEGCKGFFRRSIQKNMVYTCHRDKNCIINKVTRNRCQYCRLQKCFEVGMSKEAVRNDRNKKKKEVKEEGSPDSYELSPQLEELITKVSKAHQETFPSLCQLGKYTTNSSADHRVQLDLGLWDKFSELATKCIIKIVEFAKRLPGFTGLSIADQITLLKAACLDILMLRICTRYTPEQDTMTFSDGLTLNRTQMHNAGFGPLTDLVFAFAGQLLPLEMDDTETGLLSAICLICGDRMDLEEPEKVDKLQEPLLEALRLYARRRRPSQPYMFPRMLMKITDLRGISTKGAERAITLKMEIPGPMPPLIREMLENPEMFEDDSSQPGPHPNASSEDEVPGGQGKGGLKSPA

[7] = target: T2, Retinoic acid receptor alpha; experiment: Effective concentration against retinoid receptor isoform (RAR alpha) expressed in CV-1 cells; format: cell-based
[8] = target: T5, Retinoic acid receptor RXR-gamma (Mus musculus, UniProt P28705); experiment: Effective concentration against retinoid receptor isoform (RXR gamma) expressed in CV-1 cells; format: cell-based
T5 sequence (P28705 whole entry): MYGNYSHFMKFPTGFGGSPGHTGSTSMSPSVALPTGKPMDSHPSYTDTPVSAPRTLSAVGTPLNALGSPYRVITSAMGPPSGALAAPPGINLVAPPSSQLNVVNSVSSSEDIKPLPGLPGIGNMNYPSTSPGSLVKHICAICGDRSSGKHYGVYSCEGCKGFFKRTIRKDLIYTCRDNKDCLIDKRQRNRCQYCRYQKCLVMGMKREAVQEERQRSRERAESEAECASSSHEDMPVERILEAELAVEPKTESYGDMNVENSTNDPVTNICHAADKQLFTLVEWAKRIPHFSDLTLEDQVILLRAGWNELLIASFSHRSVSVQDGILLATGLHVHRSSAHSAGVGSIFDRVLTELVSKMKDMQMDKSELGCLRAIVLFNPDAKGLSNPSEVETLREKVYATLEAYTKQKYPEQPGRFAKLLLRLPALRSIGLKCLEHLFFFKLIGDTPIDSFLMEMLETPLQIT

[9] = target: T5, Retinoic acid receptor RXR-gamma; experiment: Inhibition of [3H]9-cis-RA binding to baculovirus expressed retinoid receptor RXR gamma
[10] = target: T4, Retinoic acid receptor gamma; experiment: Tested for binding affinity against [3H]-ATRA binding to retinoid receptor isoform (RAR gamma) expressed in baculovirus
[11] = target: T6, Retinoic acid receptor RXR-alpha (Homo sapiens, UniProt P19793)
T6 sequence (P19793 whole entry): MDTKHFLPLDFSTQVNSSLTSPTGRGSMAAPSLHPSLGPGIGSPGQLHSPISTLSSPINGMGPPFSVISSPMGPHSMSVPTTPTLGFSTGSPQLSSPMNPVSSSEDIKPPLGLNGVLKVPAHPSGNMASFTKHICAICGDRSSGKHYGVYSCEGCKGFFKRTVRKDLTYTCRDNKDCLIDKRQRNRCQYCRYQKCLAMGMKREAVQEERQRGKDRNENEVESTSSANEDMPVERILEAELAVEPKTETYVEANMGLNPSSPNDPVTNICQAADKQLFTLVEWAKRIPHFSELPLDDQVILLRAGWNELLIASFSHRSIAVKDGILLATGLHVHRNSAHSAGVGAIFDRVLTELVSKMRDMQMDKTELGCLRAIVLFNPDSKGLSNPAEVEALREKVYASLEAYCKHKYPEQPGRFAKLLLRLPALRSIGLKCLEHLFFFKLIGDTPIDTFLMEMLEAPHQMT
Description: Inhibition of [3H]9-cis-RA binding to baculovirus expressed retinoid receptor RXR alpha

[12] = target: T6, Retinoic acid receptor RXR-alpha; remark: listed apart in the source
Description: Effective concentration against retinoid receptor isoform (RXR alpha) expressed in CV-1 cells

[13] = target: T2, Retinoic acid receptor alpha; experiment: Inhibition of [3H]-ATRA binding to baculovirus expressed retinoid receptor RAR alpha

Row | EC50 [1] | Kd [2] | Kd [3] | EC50 [4] | Kd [5] | EC50 [6] | EC50 [7] | EC50 [8] | Kd [9] | Kd [10] | Kd [11] | EC50 [12] | Kd [13] | SMILES
1 | 0.198 µM | 0.191 µM | > 1 µM | > 10 µM | > 1 µM | > 10 µM | > 10 µM | 0.23 µM | 0.113 µM | > 1 µM | 0.096 µM | 0.083 µM | – | C=C(c1ccc(C(=O)O)cc1)c1cc2c(cc1OC)C(C)(C)CCC2(C)C
2 | 0.059 µM | 0.034 µM | – | > 10 µM | > 1 µM | > 10 µM | > 10 µM | 0.043 µM | 0.035 µM | > 1 µM | 0.028 µM | 0.051 µM | > 1 µM | C=C(c1ccc(C(=O)O)cc1)c1cc2c(cc1Br)C(C)(C)CCC2(C)C
3 | 0.189 µM | 0.108 µM | – | 0.337 µM | > 1 µM | 0.397 µM | > 10 µM | 0.383 µM | 0.094 µM | > 1 µM | 0.069 µM | 0.197 µM | > 1 µM | C=C(c1ccc(C(=O)O)cc1)c1cc2c(cc1F)C(C)(C)CCC2(C)C
